Experimental data published in PMC8536644, “Enigmatic mechanism of the N-vinylpyrrolidone hepatocarcinogenicity in the rat” (Archives of Toxicology, 2021).
Values joined by “and” are separate entries in the source; they are usually repeats but may differ in a detail not shown here. Equal values may be shown once. Read-outs that look alike come from different tables or passages of the source. Marks after values point to notes of the source that are not given here.

Columns and labels:
[1] = tested on: polychromatic erythrocytes of rat bone marrow; conditions: in vivo; cited from earlier work
[2] = tested on: p53 transcription factor activity; design: method as in ToxCast (comptox.epa.gov dashboard); conditions: ref ToxCast (comptox.epa.gov dashboard); read-out: AC50 of the p53 transcription factor activity modulation; cited from earlier work
[3] = tested on: CYP2E1; test: Lauric acid hydroxylase assay, 11-hydroxylation; format: in vivo, rat
Experimental: ^14C-labelled lauric acid (55 mCi/mmol) dissolved in ethanol (0.1 mCi/mL; total volume 2.5 mL) was purchased from American Radiolabeled Chemicals. 10 µL of this solution were diluted with methanol to 2 mL. The purity was checked by radio-HPLC. For the enzyme activity determinations 1.21 mL of this solution were treated in the thermomixer at 40 °C and 300 rpm until the ethanol was completely evaporated. The residue was taken up in 550 µL DMSO and checked on the incubation days by radio-HPLC and by liquid scintillation counting (LSC). To this end the just-mentioned solution in DMSO (nominally 8.14 MBq/mL) was 100-fold diluted with methanol, 50 µL of the resultant solution used for the HPLC analysis, 100 µL for the LSC analysis (488,400 dpm/100 µL).
For the determination of the lauric acid hydroxylase activity the liver microsomal fractions (prepared as described in the preceding chapter “Aryl hydrocarbon receptor”) derived from the NVP-treated (and untreated control) male rats were adjusted with TrisHCl pH 7.5–20 mg protein/mL. Obtained samples were measured in duplicates. Controls were heat-denatured samples (15 min at 99 °C in the thermomixer at 450 rpm), zero-time samples (reaction stopped immediately after adding substrate) and buffer controls (TrisHCl pH 7.5, no microsomal protein). 155 µL master mix (100 mM TrisHCl pH 7.5, 10 mM MgCl2, 2 mM 5’AMP-Na2, 5 mM G-6-P, 10 U G-6-P-DH) and 30 µL sample were preincubated for 3 min at 37 °C. Subsequently 10 µL of a 2-mM NADPH solution and 5 µL ^14C-lauric acid (8.14 MBq/mL) were added (lauric acid final concentration in the incubation 100 µM). The reaction was run for 20 min at 37 °C in the thermomixer (450 rpm) and stopped by the addition of 200 µL ice-cold acetone. Proteins were sedimented by centrifugation (6000 g, 10 min, 4 °C) and the supernatant used for the analysis by HPLC (system: Agilent 1260 infinity, column: EC250/4 Nucleosil, 120–5 C18, radio detector: Berthold FlowStar LB 513) under the following conditions: Injection volume 50 µL; eluent A: Methanol/acetic acid/water (600/5/400 mL), eluent B: Methanol; gradient: 0–10 min 100% eluent A, 10–20 min 0–100% eluent B, 20–30 min 100% eluent B, 30–40 min 100% eluent A; flow rate: 0.8 mL/min. In order to ascertain the assignment of the peaks to 11-hydroxylauric acid versus 12-hydroxylauric acid the retention times and mass spectra (HPLC-QTOF/MS) of a 12-hydroxylauric acid standard were compared with the lauric acid incubates (parameters of the HPLC-QTOF/MS system: (U)HPLC: Agilent 1200 und 1290; MS instrument: MS324/Agilent/S/N US10318001; radio detector: Raytest/Mirastar Masshunter Data Acquisition B.06.01; ionisation mode: ESI, negative mode).

[4] = tested on: CYP1A; test: EROD assay, lung microsomes of NVP-treated rats; format: in vivo, rat; conditions: after NVP treatment; below the LOD
Experimental: The alkoxyresorufin dealkylase (AROD) assays were based on the method by Burke et al. ([1994]).
The frozen livers and lungs of the NVP-treated male Wistar rats were thawed and washed with isotonic (0.9%) NaCl solution. The tissues were ice-cooled homogenized (1 g tissue: 3 mL 0.25 M saccharose in 1 mM disodium EDTA, pH 7.4) and centrifuged (9000 g, 15 min, 4 °C). The supernatant fraction was centrifuged (100 000 g, 60 min, 4 °C). The resulting supernatant fraction was used for the palmitoyl-CoA-oxidase assay described further down. The pellet was taken up in 150 mM aqueous KCl solution, recentrifuged (100 000 g, 60 min, 4 °C) and the pellet taken up in 1 mL/g liver or 0.5 mL/g lung resuspension buffer (1 mM GSH, 1 mM disodium EDTA, 4 mM MgCl2, 0.1 M KH2PO4, pH 7.5 and 4% glycerol). […]
For determination of the enzyme activities in triplicates, 85 µL master mix (100 mM TrisHCl pH 7.5, 2 mM 5’AMP, 5 mM G-6-P, 10 U G-6-P-DH, 10 mM Dicumarol, 10 mM MgCl2, either 2 µM EROD or 10 µM PROD or 5 µM BROD) was added to 10 µL microsomal fraction (1 mg protein/mL). […] The activity was determined by measuring the increase of the fluorescence (excitation at 550 nm, emission at 585 nm) due to resorufin formation compared with resorufin standards, which had been prepared by dissolving tenfold concentrated solutions in DMSO, which were then diluted tenfold in 100 mM TrisHCl pH 7.5.

[5] = tested on: BALB/3T3 cells; design: method as in MAK [1994]; conditions: ref MAK [1994]; cited from earlier work
[6] = tested on: Sprague–Dawley rats; conditions: cited from earlier work; for Larynx squamous carcinoma, incidence / Liver hepatocellular carcinoma, incidence / Nasal cavity adenocarcinoma, incidence / Nasal cavity adenoma, incidence: 24 months inhalation, 60 animals, ref Klimisch et al. (1997a)
[7] = tested on: human lymphocyte cultures; design: method as in MAK [1994]; conditions: ref MAK [1994]; cited from earlier work
[8] = tested on: mice; design: method as in BASF [1993]; conditions: oral application, ref BASF [1993]; cited from earlier work
[9] = lauric acid 11-hydroxylation, liver microsomes, 20 ppm NVP, individual animals 19-24

CCOS(C)(=O)=O [EMS, ethyl methanesulfonate, reference compound]
Micronuclei in PCE, historical positive controls [1]: 6.1–21.9 ‰

C=CN1CCCC1=O [NVP, N-vinylpyrrolidone]
AC50 [2]: 40 nM
Lauric acid 11-hydroxylation activity ([3]; 20 ppm, male rat liver microsomes): 5149 ± 2010 peak area/min/mg protein
Increase of lauric acid 11-hydroxylation vs vehicle control ([3]; 20 ppm, statistically not significant): 1.1 fold
ω-1-hydroxylase (CYP2E1-activity), enzyme activity individual [3, 9]: 7458 peak surface/min/mg protein and 7295 peak surface/min/mg protein and 3522 peak surface/min/mg protein and 5008 peak surface/min/mg protein and 5216 peak surface/min/mg protein and 2393 peak surface/min/mg protein
ω-1-hydroxylase (CYP2E1-activity), peak surface [3, 9]: 9940 and 10,040 and 5283 and 7513 and 7824 and 3996
ω-1-hydroxylase (CYP2E1-activity), enzyme activity group (mean ± SD) ([3]; lauric acid 11-hydroxylation, liver microsomes, 20 ppm NVP, vehicle 4512 ± 1050): 5149 ± 2010 peak surface/min/mg protein
EROD activity in lung microsomes [4]: < 1.6 pmol/min/mg protein
BALB/3T3 cell transformation test result [5]: negative
Larynx squamous carcinoma, incidence ([6]; female, 5 ppm): 0
Liver hepatocellular carcinoma, incidence ([6]; female, 5 ppm): 3
Nasal cavity adenocarcinoma, incidence ([6]; female, 5 ppm): 0
Nasal cavity adenoma, incidence ([6]; female, 5 ppm): 2
Larynx squamous carcinoma, incidence ([6]; female, 10 ppm): 0
Liver hepatocellular carcinoma, incidence ([6]; female, 10 ppm): 6*
Nasal cavity adenocarcinoma, incidence ([6]; female, 10 ppm): 0
Nasal cavity adenoma, incidence ([6]; female, 10 ppm): 8**
Larynx squamous carcinoma, incidence ([6]; female, 20 ppm): 4
Liver hepatocellular carcinoma, incidence ([6]; female, 20 ppm): 26***
Nasal cavity adenocarcinoma, incidence ([6]; female, 20 ppm): 4*
Nasal cavity adenoma, incidence ([6]; female, 20 ppm): 14***
Larynx squamous carcinoma, incidence ([6]; male, 5 ppm): 0
Liver hepatocellular carcinoma, incidence ([6]; male, 5 ppm): 6*
Nasal cavity adenocarcinoma, incidence ([6]; male, 5 ppm): 0
Nasal cavity adenoma, incidence ([6]; male, 5 ppm): 9**
Larynx squamous carcinoma, incidence ([6]; male, 10 ppm): 0
Liver hepatocellular carcinoma, incidence ([6]; male, 10 ppm): 5*
Nasal cavity adenocarcinoma, incidence ([6]; male, 10 ppm): 4*
Nasal cavity adenoma, incidence ([6]; male, 10 ppm): 9***
Larynx squamous carcinoma, incidence ([6]; male, 20 ppm): 4
Liver hepatocellular carcinoma, incidence ([6]; male, 20 ppm): 17***
Nasal cavity adenocarcinoma, incidence ([6]; male, 20 ppm): 6*
Nasal cavity adenoma, incidence ([6]; male, 20 ppm): 11***
Lowest tested dose at which hepatocellular carcinomas were observed ([6]; rat, inhalation, ref Klimisch et al. [1997a]): 5 ppm
Chromosome aberration test result [7]: negative
Micronucleus test result [8]: negative
